What is called IC50 is the concentration that inhibits the measured activity by half. A higher IC50 goes with weaker potency.

Values joined by “and” are separate entries in the source; they are usually repeats but may differ in a detail not shown here. Identical values can stand only once. Bounds are passed on as bounds.

Sequence of Glycogen synthase kinase-3 beta (P49841 whole entry): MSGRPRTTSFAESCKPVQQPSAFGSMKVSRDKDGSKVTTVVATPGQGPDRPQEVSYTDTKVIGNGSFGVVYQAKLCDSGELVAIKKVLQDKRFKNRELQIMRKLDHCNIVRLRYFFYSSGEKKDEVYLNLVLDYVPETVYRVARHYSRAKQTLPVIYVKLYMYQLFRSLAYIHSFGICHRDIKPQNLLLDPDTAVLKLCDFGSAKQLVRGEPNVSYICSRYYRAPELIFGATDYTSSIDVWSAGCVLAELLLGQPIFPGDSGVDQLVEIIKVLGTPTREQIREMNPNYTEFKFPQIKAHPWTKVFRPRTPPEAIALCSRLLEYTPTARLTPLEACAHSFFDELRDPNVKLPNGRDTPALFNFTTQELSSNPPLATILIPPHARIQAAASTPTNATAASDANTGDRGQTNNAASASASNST
Sequence of Glycogen synthase kinase-3 alpha (P49840 whole entry): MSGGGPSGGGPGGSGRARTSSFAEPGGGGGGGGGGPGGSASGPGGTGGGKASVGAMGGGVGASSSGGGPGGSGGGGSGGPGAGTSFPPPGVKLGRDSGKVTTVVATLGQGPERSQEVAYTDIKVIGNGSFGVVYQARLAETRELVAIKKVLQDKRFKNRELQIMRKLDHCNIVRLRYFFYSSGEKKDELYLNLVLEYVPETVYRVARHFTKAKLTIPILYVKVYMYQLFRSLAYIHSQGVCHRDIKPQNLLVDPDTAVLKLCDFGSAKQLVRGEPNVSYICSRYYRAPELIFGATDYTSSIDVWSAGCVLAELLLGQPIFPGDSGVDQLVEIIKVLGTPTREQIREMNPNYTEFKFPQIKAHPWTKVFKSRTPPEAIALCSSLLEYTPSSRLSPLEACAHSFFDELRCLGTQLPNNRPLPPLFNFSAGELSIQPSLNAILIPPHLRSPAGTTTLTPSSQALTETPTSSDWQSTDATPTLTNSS

The first experiment has as its target Glycogen synthase kinase-3 beta (Homo sapiens, UniProt P49841). Briefly: TR-FRET Assay. The protocol: (§1) The assay was performed in a white, 384 well, low volume, flat bottom plate (Grenier). […] The kinase activity was quenched with 2 μL of 250 mM EDTA. A 10 μL volume of 40 nM Strepavidin-d2, 2 nM Tb2+-pSer641 antibody in TR-FRET Detection Buffer (Invitrogen) was then added.
In turn, `CC[C@@]1(c2cccc(-c3cnn(Cc4ccc(C(F)(F)F)cc4)c3)c2)C2=CN=NC2NC2=C1C(=O)NC(C)(C)C2` (stereo not given in full) [US20250313563, Compound 951849] had an IC50 of 0.1 to 1 µM. Compound `CC[C@]1(c2cccc(-c3c(C)cnc4ccccc34)c2)C2=C(CC(C)(C)NC2=O)NC2=NN=CC21` (stereo not given in full) [US20250313563, Compound 949398] displayed an IC50 of 0.1 to 1 µM. Still for that read-out and setting: as for `CC[C@@]1(c2cccc(-c3cnn(C)c3)c2)C2=C(CC(C)(C)NC2=O)NC2N=NC(F)=C21` (stereo not given in full) [US20250313563, Compound 949011], the figure is 0.1 to 1 µM. With `CC[C@]1(c2cccc(-c3ccncc3C)c2)C2=CN=NC2NC2=C1C(=O)NC1(CCC1)C2` (stereo not given in full) [US20250313563, Compound 948523], the IC50 lay in the range of 0.1 to 1 µM. `CC[C@]1(c2cccc(-c3ccncc3F)c2)C2=C(CC(C)(C)CC2=O)NC2N=NC(C)=C21` (stereo not given in full) [US20250313563, Compound 913052]: the half-maximal inhibitory concentration (IC50) fell in the range of 0.1 to 1 µM. Still for that read-out and setting: in the case of `CC[C@@]1(c2cccc(-c3cncn3C(C)C)c2)C2=CN=NC2NC2=C1C(=O)CC(C)(C)C2` (stereo not given in full) [US20250313563, Compound 945725] it was < 0.1 µM and 0.1 to 1 µM; in that of `CC[C@]1(c2cccc(N(C)c3nccc(C)n3)c2)C2=CN=NC2NC2=C1C(=O)CC(C)(C)C2` (stereo not given in full) [US20250313563, Compound 945328], 0.1 to 1 µM; in that of `CC[C@]1(c2cccc(-c3ccnc(C)c3)c2)C2=CN=NC2NC2=C1C(=O)N(C)C(C)(C)C2` (stereo not given in full) [US20250313563, Compound 949004], 0.1 to 1 µM.

The target in the next experiment is Glycogen synthase kinase-3 alpha (Homo sapiens, UniProt P49840). Briefly: TR-FRET Assay. The protocol:
as §1
In general terms: TR-FRET usually uses a lanthanide donor and a delayed reading to cut background.
On to `CC[C@@]1(c2cccc(N(C)c3cccnc3)c2)C2=CN=NC2NC2=C1C(=O)CC(C)(C)C2` (stereo not given in full) [US20250313563, Compound 874299], for which the IC50 lay in the range of 0.1 to 1 µM. Still for that read-out and setting: as for `CC[C@@]1(c2cccc(N(C)c3cccnn3)c2)C2=CN=NC2NC2=C1C(=O)CC(C)(C)C2` (stereo not given in full) [US20250313563, Compound 911976], the figure is 0.1 to 1 µM; as for `CC[C@@]1(c2cccc(-c3ccnc(C)c3C)c2)C2=CN=NC2NC2=C1C(=O)CC(C)(C)C2` (stereo not given in full) [US20250313563, Compound 943517], 0.1 to 1 µM; as for `CC[C@]1(c2cccc(-c3ccnn3C(C)C)c2)C2=CN=NC2NC2=C1C(=O)CC(C)(C)C2` (stereo not given in full) [US20250313563, Compound 946092], 1 to 5 µM.

Take `CC[C@]1(c2cccc(-c3ccn(C)n3)c2)C2=C(CC(C)(C)CC2=O)NC2N=NC(C)=C21` (stereo not given in full) [US20250313563, Compound 913039]: the IC50 lay within 1 to 5 µM.

Turning to `CC[C@@]1(c2cccc(N3CCc4ccncc43)c2)C2=CN=NC2NC2=C1C(=O)CC(C)(C)C2` (stereo not given in full) [US20250313563, Compound 912004], the IC50 was 1 to 5 µM. Still for that read-out and setting: as for `CC[C@@]1(c2cccc(C(F)(F)F)c2)C2=CN=NC2NC2=C1C(=O)C[C@@]1(CCNC1=O)C2` (stereo not given in full) [US20250313563, Compound 950331], the figure is 0.1 to 1 µM.

On to `CC[C@@]1(c2cccc(C3CCC3)c2)C2=CN=NC2NC2=C1C(=O)CC(C)(C)C2` (stereo not given in full) [US20250313563, Compound 949514], for which the IC50 was 1 to 5 µM. The same measure, in the same setting: in the case of `CC(=O)N1CC2(C1)C1=C(CC(C)(C)CC1=O)NC1N=NC(CC(C)(C)C)=C12` (stereo not given) [US20250313563, Compound 90991] it was 3.01 µM and 17.5 µM. On the same count and under the same terms, in the case of `CCn1nccc1-c1cccc([C@@]2(CC)C3=CN=NC3NC3=C2C(=O)CC(C)(C)C3)c1` (stereo not given in full) [US20250313563, Compound 946090] it was 0.1 to 1 µM; in that of `CC[C@]1(c2cccc(-c3cnn(C)c3F)c2)C2=CN=NC2NC2=C1C(=O)NC(C)(C)C2` (stereo not given in full) [US20250313563, Compound 949395], 1 to 5 µM. Same read-out and setting: in the case of `CC(C)(C)CC1=C2C(N=N1)NC1=C(C(=O)CC(C)(C)C1)C21COC1` (stereo not given) [US20250313563, Compound 90709] it was 1.79 µM and 13.7 µM. `CC[C@]1(c2cccc(-c3ccnn3C)c2)C2=CN=NC2NC2=C1C(=O)N[C@]1(CCOC1)C2` (stereo not given in full) [US20250313563, Compound 948014] came in with an IC50 of 0.1 to 1 µM.

In turn, `CC[C@@]1(c2cccc(-c3ccnc(C)c3)c2)C2=CN=NC2NC2=C1C(=O)N[C@]1(CCOC1)C2` (stereo not given in full) [US20250313563, Compound 948148] registered an IC50 of 1 to 5 µM. Still for that read-out and setting: in the case of `CC[C@@]1(c2cccc(-n3ccnc3)c2)C2=CN=NC2NC2=C1C(=O)CC(C)(C)C2` (stereo not given in full) [US20250313563, Compound 874533] it was 0.1 to 1 µM; in that of `CC[C@@]1(c2cccc([C@H]3CCOC(C)(C)C3)c2)C2=CN=NC2NC2=C1C(=O)CC(C)(C)C2` (stereo not given in full) [US20250313563, Compound 912090], 0.1 to 1 µM; in that of `CC[C@@]1(c2cccc(C(F)(F)F)c2)C2=CN=NC2NC2=C1C(=O)NC[C@@H]2C` (stereo not given in full) [US20250313563, Compound 945384], 1 to 5 µM. Compound `CC[C@@]1(c2cccc(-c3ccnc(C)c3)c2)C2=CN=NC2NC2=C1C(=O)CC(C)(C)[C@@H]2F` (stereo not given in full) [US20250313563, Compound 946102] returned an IC50 of 1 to 5 µM. Still for that read-out and setting: in the case of `CC[C@@]1(c2cccc(S(=O)(=O)CC3CC3)c2)C2=CN=NC2NC2=C1C(=O)CC(C)(C)C2` (stereo not given in full) [US20250313563, Compound 917151] it was 1 to 5 µM.

`CC[C@]1(c2cccc(-c3cc(C)ncc3F)c2)C2=CN=NC2NC2=C1C(=O)CC(C)(C)C2` (stereo not given in full) [US20250313563, Compound 927339] came in with an IC50 of 1 to 5 µM. As for `CC[C@@]1(c2cccc(Cl)c2)C2=C(CC(C)(C)CC2=O)NC2N=NC(C(F)(F)F)=C21` (stereo not given in full) [US20250313563, Compound 801309], the IC50 was in the range of 1 to 5 µM. Still for that read-out and setting: as for `CC[C@@]1(c2cccc(-c3cn(C)nc3C)c2)C2=C(CC(C)(C)CC2=O)NC2N=NC(C)=C21` (stereo not given in full) [US20250313563, Compound 913034], the figure is 1 to 5 µM; as for `CC[C@@]1(c2cccc(-c3ccncc3C(F)(F)F)c2)C2=CN=NC2NC2=C1C(=O)CC(C)(C)C2` (stereo not given in full) [US20250313563, Compound 943913], under 0.1 µM; as for `CC[C@@]1(c2cccc(N3CCCC3)c2)C2=C(CC(C)(C)CC2=O)NC2N=NC(C(F)(F)F)=C21` (stereo not given in full) [US20250313563, Compound 819575], 0.1 to 1 µM.

The compound `CC[C@]1(c2cccc(C(F)(F)F)c2)C2=CN=NC2NC2=C1C(=O)C[C@]1(CCN(C)C1=O)C2` (stereo not given in full) [US20250313563, Compound 950330] came in with an IC50 of 0.1 to 1 µM.

Regarding `CC[C@@]1(c2cccc(Nc3ncccn3)c2)C2=CN=NC2NC2=C1C(=O)CC(C)(C)C2` (stereo not given in full) [US20250313563, Compound 945958], the IC50 was 1 to 5 µM. The same measure, in the same setting: as for `CC[C@]1(c2cccc(-c3ccncc3)c2)C2=CN=NC2NC2=C1C(=O)CC(C)(C)[C@H]2F` (stereo not given in full) [US20250313563, Compound 959342], the figure is 1 to 5 µM. The same measure, in the same setting: in the case of `CC[C@]1(c2cccc(-c3ccncc3C)c2)C2=CN=NC2NC2=C1C(=O)NC(C)(COC)C2` (stereo not given in full) [US20250313563, Compound 948127] it was 0.1 to 1 µM.

As to `CC[C@@]1(c2cccc(OC(C)C)c2)C2=CN=NC2NC2=C1C(=O)CC(C)(C)C2` (stereo not given in full) [US20250313563, Compound 811563], the IC50 lay within 1 to 5 µM.

`CC[C@@]1(c2cccc(N3C[C@@H](C)[C@@H](C)C3)c2)C2=CN=NC2NC2=C1C(=O)CC(C)(C)C2` (stereo not given in full) [US20250313563, Compound 918327] displayed an IC50 of 1 to 5 µM. As for `CC[C@]1(c2cccc([C@H]3CCOC(C)(C)C3)c2)C2=CN=NC2NC2=C1C(=O)CC(C)(C)C2` (stereo not given in full) [US20250313563, Compound 912088], the IC50 lay in the range of 0.1 to 1 µM. In turn, `CC[C@]1(c2cccc(-c3ccnn3C)c2)C2=CN=NC2NC2=C1C(=O)N[C@@]1(CCCOC1)C2` (stereo not given in full) [US20250313563, Compound 948366] showed an IC50 of 1 to 5 µM. Same read-out and setting: as for `CC[C@]1(c2cccc(-c3cnn(CCOC)c3)c2)C2=CN=NC2NC2=C1C(=O)NC(C)(C)C2` (stereo not given in full) [US20250313563, Compound 949114], the figure is 1 to 5 µM; as for `CC[C@]1(c2cccc(-c3cnn(C4CC4(F)F)c3)c2)C2=CN=NC2NC2=C1C(=O)NC(C)(C)C2` (stereo not given in full) [US20250313563, Compound 949393], 1 to 5 µM. Same read-out and setting: in the case of `COC(=O)C1CCC2(CC1)C1=C(N=NC1)NC1=C2C(=O)CC(C)(C)C1` (stereo not given) [US20250313563, Compound 918277] it was under 0.1 µM; in that of `CC[C@@]1(c2cccc(-c3c(C)cnn3C)c2)C2=CN=NC2NC2=C1C(=O)NC(C)(C)C2` (stereo not given in full) [US20250313563, Compound 952021], < 0.1 µM and 0.1 to 1 µM. Still for that read-out and setting: as for `CC[C@@]1(c2cccc(-c3ccncc3)c2)C2=CN=NC2NC2=C1C(=O)C[C@@H](C)C2` (stereo not given in full) [US20250313563, Compound 874315], the figure is 1 to 5 µM; as for `CC[C@@]1(c2cccc(N(C)c3ncccn3)c2)C2=CN=NC2NC2=C1C(=O)CC(C)(C)C2` (stereo not given in full) [US20250313563, Compound 911981], under 0.1 µM.

Compound `CC[C@]1(c2cccc(-c3cn(C)nc3C)c2)C2=CN=NC2NC2=C1C(=O)N(C)C(C)(C)C2` (stereo not given in full) [US20250313563, Compound 949008] gave an IC50 of 1 to 5 µM.

Consider `CC[C@@]1(c2cccc(-c3ccnc(C)c3)c2)C2=C(CC(C)(C)NC2=O)NC2N=NC(C(F)F)=C21` (stereo not given in full) [US20250313563, Compound 950163], for which the IC50 is < 0.1 µM and 0.1 to 1 µM. `CC[C@]1(c2cccc(-c3ccnn3C)c2)C2=CN=NC2NC2=C1C(=O)NC1(CCC1)C2` (stereo not given in full) [US20250313563, Compound 948522] registered a concentration for half-maximal inhibition (IC50) of 0.1 to 1 µM. `CC[C@@]1(c2cccc(C(F)(F)F)c2)C2=CN=NC2NC2=C1C(=O)N[C@H](c1ccccc1)C2` (stereo not given in full) [US20250313563, Compound 945363] had a 50% inhibitory concentration (IC50) of 1 to 5 µM. On the same count and under the same terms, as for `CC[C@@]1(c2cccc(-c3ccnc4cccnc34)c2)C2=CN=NC2NC2=C1C(=O)NC(C)(C)C2` (stereo not given in full) [US20250313563, Compound 952560], the figure is < 0.1 µM and 0.1 to 1 µM; as for `CC[C@@]1(c2cccc(C(F)F)c2)C2=CN=NC2NC2=C1C(=O)CC(C)(C)C2` (stereo not given in full) [US20250313563, Compound 826716], 0.1 to 1 µM; as for `CC[C@]1(c2cccc(Oc3ncccn3)c2)C2=CN=NC2NC2=C1C(=O)CC(C)(C)C2` (stereo not given in full) [US20250313563, Compound 947818], 0.1 to 1 µM. On the same count and under the same terms, as for `CC[C@]1(c2cccc(-c3ccnc(C)c3)c2)C2=CN=NC2NC2=C1C(=O)C[C@]1(CCOC1)C2` (stereo not given in full) [US20250313563, Compound 947412], the figure is 1 to 5 µM. Consider `CC[C@]1(c2cccc(-c3ccnc(C)c3)c2)C2=CN=NC2NC2=C1C(=O)NC1(CCOCC1)C2` (stereo not given in full) [US20250313563, Compound 948524], for which the IC50 was 1 to 5 µM.

Source of the values: BindingDB's records for patent US20250313563 (The Broad Institute, 2025).
